Reference: PubChem BioAssay (NCI)
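GI50 = concentration required for 50% inhibition of growth. Definition used: TGI = concentration required for complete inhibition of growth.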

Legend:
Assay in all cases: NCI anticancer screen, dose series, 384-well format
[1] = tested on: K-562 leukemia
[2] = tested on: RPMI-8226 leukemia
[3] = tested on: SF-295 CNS
[4] = tested on: NCI-H322M lung
[5] = tested on: OVCAR-8 ovarian
[6] = tested on: UACC-257 melanoma
[7] = tested on: RXF 393 renal
[8] = tested on: OVCAR-4 ovarian
[9] = tested on: PC-3 prostate
[10] = tested on: MCF7 breast
[11] = tested on: MALME-3M melanoma
[12] = tested on: OVCAR-3 ovarian
[13] = tested on: CCRF-CEM leukemia
[14] = tested on: UO-31 renal
[15] = tested on: NCI-H23 lung
[16] = tested on: IGROV1 ovarian
[17] = tested on: T-47D breast
[18] = tested on: HOP-92 NSCLC
[19] = tested on: SK-MEL-5 melanoma
[20] = tested on: HCC-2998 colon
[21] = tested on: SF-539 CNS
[22] = tested on: OVCAR-5 ovarian
[23] = tested on: A549 NSCLC
[24] = tested on: MOLT-4 leukemia
[25] = tested on: SF-268 CNS
[26] = tested on: NCI-H226 lung
[27] = tested on: HT29 colon
[28] = tested on: NCI-H460 NSCLC
[29] = tested on: SK-OV-3 ovarian
[30] = tested on: COLO 205 colon
[31] = tested on: ACHN renal
[32] = tested on: UACC-62 melanoma
[33] = tested on: EKVX NSCLC
[34] = tested on: A498 renal
[35] = tested on: NCI-H522 lung
[36] = tested on: SW-620 colon
[37] = tested on: LOX IMVI melanoma
[38] = tested on: CAKI-1 renal
[39] = tested on: HS 578T breast
[40] = tested on: HOP-62 NSCLC
[41] = tested on: HCT-15 colon
[42] = tested on: BT-549 breast
[43] = tested on: HL-60(TB) leukemia
[44] = tested on: DU-145 prostate
[45] = tested on: TK-10 renal
[46] = tested on: 786-0 renal
[47] = tested on: SN12C renal
[48] = tested on: M14 melanoma
[49] = tested on: KM12 colon
[50] = tested on: MDA-MB-231 breast
[51] = tested on: SNB-75 CNS
[52] = tested on: SK-MEL-28 melanoma
[53] = tested on: SNB-19 CNS
[54] = tested on: NCI/ADR-RES ovarian
[55] = tested on: MDA-MB-435 melanoma
[56] = tested on: SR leukemia

Compound: CCN1Cc2c(ccc(F)c2C#N)O[C@@H](C)CNC(=O)c2c(N)nn3ccc1nc23
- GI50 [1]: 0.0664 µM
- TGI [1]: 0.222 µM
- GI50 [2]: 0.205 µM
- TGI [2]: 0.598 µM
- GI50 [3]: 0.153 µM
- TGI [3]: 3.02 µM
- GI50 [4]: 2.2 µM
- TGI [4]: 18.8 µM
- GI50 [5]: 2.74 µM
- TGI [5]: 13.8 µM
- GI50 [6]: 1.02 µM
- TGI [6]: 4.89 µM
- GI50 [7]: 1.32 µM
- TGI [7]: 7.18 µM
- GI50 [8]: 2.4 µM
- TGI [8]: 17.3 µM
- GI50 [9]: 1.38 µM
- TGI [9]: 17.6 µM
- GI50 [10]: 3.16 µM
- TGI [10]: 19.4 µM
- GI50 [11]: 0.436 µM
- TGI [11]: 2.41 µM
- GI50 [12]: 1.42 µM
- TGI [12]: 11.2 µM
- GI50 [13]: 0.566 µM
- TGI [13]: 10.8 µM
- GI50 [14]: 2.65 µM
- TGI [14]: 16.3 µM
- GI50 [15]: 0.264 µM
- TGI [15]: 3.48 µM
- GI50 [16]: 0.566 µM
- TGI [16]: 3.35 µM
- GI50 [17]: 0.946 µM
- TGI [17]: 12.3 µM
- GI50 [18]: 0.362 µM
- TGI [18]: 1.85 µM
- GI50 [19]: 0.395 µM
- TGI [19]: 5.31 µM
- GI50 [20]: 4.12 µM
- TGI [20]: 20.9 µM
- GI50 [21]: 3.07 µM
- TGI [21]: 13.8 µM
- GI50 [22]: 0.735 µM
- TGI [22]: 9.02 µM
- GI50 [23]: 0.585 µM
- TGI [23]: 12.1 µM
- GI50 [24]: 0.198 µM
- TGI [24]: 0.478 µM
- GI50 [25]: 1.76 µM
- TGI [25]: 11.9 µM
- GI50 [26]: 1.28 µM
- TGI [26]: 4.7 µM
- GI50 [27]: 0.694 µM
- TGI [27]: 12.4 µM
- GI50 [28]: 0.426 µM
- TGI [28]: 11.4 µM
- GI50 [29]: 0.282 µM
- TGI [29]: 2.36 µM
- GI50 [30]: 0.271 µM
- TGI [30]: 1.01 µM
- GI50 [31]: 0.385 µM
- TGI [31]: 2.06 µM
- GI50 [32]: 0.454 µM
- TGI [32]: 2.52 µM
- GI50 [33]: 0.563 µM
- TGI [33]: 10.3 µM
- GI50 [34]: 0.379 µM
- TGI [34]: 7.56 µM
- GI50 [35]: 0.528 µM
- TGI [35]: 14.3 µM
- GI50 [36]: 3.82 µM
- TGI [36]: 16.4 µM
- GI50 [37]: 0.529 µM
- TGI [37]: 1.98 µM
- GI50 [38]: 0.523 µM
- TGI [38]: 1.84 µM
- GI50 [39]: 0.381 µM
- TGI [39]: 1.95 µM
- GI50 [40]: 1.21 µM
- TGI [40]: 11.2 µM
- GI50 [41]: 0.757 µM
- TGI [41]: 10.3 µM
- GI50 [42]: 2.68 µM
- TGI [42]: 15.3 µM
- GI50 [43]: 1.14 µM
- TGI [43]: 3.01 µM
- GI50 [44]: 0.465 µM
- TGI [44]: 2.88 µM
- GI50 [45]: 0.868 µM
- TGI [45]: 6.62 µM
- GI50 [46]: 1.34 µM
- TGI [46]: 12.9 µM
- GI50 [47]: 0.613 µM
- TGI [47]: 4.69 µM
- GI50 [48]: 0.364 µM
- TGI [48]: 1.85 µM
- TGI [49]: 14.7 µM
- GI50 [50]: 0.438 µM
- TGI [50]: 1.97 µM
- GI50 [51]: 0.892 µM
- TGI [51]: 5.37 µM
- GI50 [52]: 0.62 µM
- TGI [52]: 3.76 µM
- GI50 [53]: 2.84 µM
- TGI [53]: 12.7 µM
- GI50 [54]: 3.89 µM
- TGI [54]: 15.8 µM
- GI50 [55]: 0.565 µM
- TGI [55]: 10.5 µM
- GI50 [56]: 0.31 µM
- TGI [56]: 1.02 µM
